# Experimental data taken from patent publication US20220334101A1, “MODULATING EXTRACELLULAR MATRIX MOVEMENT” (Helmholtz Zentrum Muenchen - Deutsches Forschungszentrum …, priority 2019, published 2022).
# Structures can show the parent of a compound that is named as a salt.
# System: skin-fascia explants
# Assay: Scar-in-a-dish (SCAD) ex vivo skin-fascia explant assay, screening of Prestwick chemical library
# Type: cell-based, mouse
# Conditions: molecules of table 1 named as inhibitors of ECM movement
# From the text: Post born Day 0 (P0) neonates of C57BL/6J wild type mouse were first sacrificed by decapitation. Then dorsal back skin was isolated to make 2 mm full thickness biopsies (0 2 mm, Stiefel) that included the epidermis, dermis and deep subcutaneous fascia layers. The whole skin tissue explant system is termed as scar-in-a-dish (SCAD) assay (Patent Application no. PLA17A13). The SCAD tissue was maintained in DMEM/F12 cell culture medium (Life Technologies) supplemented with 10% FBS (Life Technologies), 1% non-essential amino acid (Thermo Fisher), 1% Glutamax (Thermo Fisher), 1% penicillin and streptomycin (Thermo Fisher) in a 37° C. incubator supplied with […] and 5% CO2. Medium was changed every other day until day 5 when SCADs were collected and fixed for histology analysis. To be noticed, the excised skin was submerged […] in culture media, which confined the scar-prone fibroblasts to the explant and discouraged their adherence to the tissue culture plate.
# The PCL provides an additional advantage as all chemicals are of stable physicochemical properties, show a high range of chemical diversity, and are with known bioavailability and safety data in humans. All these information helps to reduce the probability of screening low-quality hits and save the costs of preliminary screening process.
# In order to accommodate to medium scale screening approach, the Inventors adapted the SCAD explant system into 96-well plate (Falcon) formats, with each well contained one biopsy. […] Plate and liquid handling were performed using a high-throughput screening platform system composed of a Sciclone G3 Liquid Handler from PerkinElmer (Waltham, Mass., USA). On Day 0 tissues were treated either with the respective compound (1 mM stock solution) dissolved in 100% dimethyl sulfoxide (DMSO, Carl Roth) or DMSO alone. 0.5 μl of compounds/DMSO were transferred with a 96-array head to 200 μl DMEM/F12 medium per well to keep the final DMSO concentrations at […]. Tissues were then incubated (37° C.; 5% CO2) for 72 h prior to a second round of compound treatment, which was performed by exchanging cell culture medium per well and transferring […] of compounds/DMSO into the fresh medium. After an incubation time of another 48 h (37° C.; 5% CO2) the tissues were harvested and fixed for histological processing and imaging.
# Briefly, the Inventors excised 2-mm full thickness skin biopsies that included epidermis, dermis, and deep subcutaneous fascia layers from mouse backs (see Methods). Skin-fascia explants were submerged fascia-side up in culture media, to confine scar-prone fibroblasts to the explant and discourage their adherence to the tissue culture plate.
# The Prestwick library has selected a diverse array of chemicals with strong physicochemical properties, with known bioavailability and clinical safety data. The library is an ideal place to start screening as it covers all major therapeutic chemical classes such as central nervous system, cardiovascular system, metabolism, and infectious diseases.
row,SMILES,phenotype as inhibitor of ECM movement
1,C#C[C@]1(O)CC[C@H]2[C@@H]3CCC4=C(CCC(=O)C4)[C@H]3CC[C@@]21C [Norethynodrel],anti-fibrotic phenotype
2,CCC(C)(C)c1ccc(CC(C)CN2C[C@@H](C)O[C@@H](C)C2)cc1 (some centres unmarked) [Amorolfine hydrochloride],anti-fibrotic phenotype
3,"CC(O)(P(=O)(O)O)P(=O)(O)O [Etidronic acid, disodium salt]",anti-fibrotic phenotype
4,CCN1CC(CCN2CCOCC2)C(c2ccccc2)(c2ccccc2)C1=O (centres unmarked) [Doxapram hydrochloride],anti-fibrotic phenotype
5,CC1(C)S[C@@H]2[C@H](NC(=O)Cc3ccccc3)C(=O)N2[C@H]1C(=O)O.CC1(C)S[C@@H]2[C@H](NC(=O)Cc3ccccc3)C(=O)N2[C@H]1C(=O)O.c1ccc(CNCCNCc2ccccc2)cc1 [Benzathine benzylpenicillin],anti-fibrotic phenotype
6,COc1cccc2c1C(=O)c1c(O)c3c(c(O)c1C2=O)C[C@@](O)(C(=O)CO)C[C@@H]3O[C@H]1C[C@H](N)[C@H](O)[C@H](C)O1 [Doxorubicin hydrochloride],anti-fibrotic phenotype
7,C[C@H](N)[C@H](O)c1ccc(O)c(O)c1 [Levonordefrin],anti-fibrotic phenotype
8,NC(N)=Nc1nc(CSCCC(N)=NS(N)(=O)=O)cs1 [Famotidine],anti-fibrotic phenotype
9,CC(C)(C)C(=O)OCOC(=O)[C@@H]1N2C(=O)[C@@H](NC(=O)[C@H](N)c3ccccc3)[C@H]2SC1(C)C [Pivampicillin],anti-fibrotic phenotype
10,"O=C1CC[C@@]2(O)[C@H]3Cc4ccc(O)c5c4[C@@]2(CCN3CC2CC2)[C@H]1O5 [Naltrexone hydrochloride dehydrate, Naltrexone hydrochloride dihydrate]",anti-fibrotic phenotype
11,C[N+](C)(CCOc1ccccc1)Cc1ccccc1.O=C([O-])c1cc2ccccc2cc1O [Bephenium hydroxynaphthoate],anti-fibrotic phenotype
12,[H]/N=C(/NCCCCC)N/N=C/c1c[nH]c2ccc(OC)cc12 [Tegaserod maleate],anti-fibrotic phenotype
13,CCN(CC)CCc1nc(-c2ccccc2)no1.O=C(O)CC(O)(CC(=O)O)C(=O)O [Oxalamine citrate salt],anti-fibrotic phenotype
14,COc1ccc2c(c1)N(C[C@H](C)CN(C)C)c1ccccc1S2.O=C(O)/C=C\C(=O)O [Methotrimeprazine maleat salt],anti-fibrotic phenotype
15,CCCCN(CCCC)CCC(O)c1cc2c(Cl)cc(Cl)cc2c2cc(C(F)(F)F)ccc12 (centres unmarked) [Halofantrine hydrochloride],anti-fibrotic phenotype
16,CC(C)/N=c1\cc2n(-c3ccc(Cl)cc3)c3ccccc3nc-2cc1Nc1ccc(Cl)cc1 [Clofazimine],anti-fibrotic phenotype
17,CC(C)N(CCC(C(N)=O)(c1ccccc1)c1ccccn1)C(C)C (centres unmarked) [Disopyramide],anti-fibrotic phenotype
18,CCOc1cc(CC(=O)N[C@@H](CC(C)C)c2ccccc2N2CCCCC2)ccc1C(=O)O [Repaglinide],anti-fibrotic phenotype
19,NC(=O)c1cnccn1 [Pyrazinamide],anti-fibrotic phenotype

row,SMILES,phenotype as inhibitor of ECM movement
1,CN1CCCC(n2nc(Cc3ccc(Cl)cc3)c3ccccc3c2=O)CC1 (centres unmarked) [Azelastine HCl],anti-fibrotic phenotype
2,CN1CCOC(c2ccccc2)c2ccccc2C1 (centres unmarked) [Nefopam hydrochloride],anti-fibrotic phenotype
3,C[C@H]1NC(=O)NC1=O [Methylhydantoin-5-(D)],anti-fibrotic phenotype
4,Nc1ccc(S(=O)(=O)Nc2cnc3ccccc3n2)cc1 [Sulfaquinoxaline sodium salt],anti-fibrotic phenotype
5,COc1ccc(NS(=O)(=O)c2ccc(N)cc2)nn1 [Sulfamethoxypyridazine],anti-fibrotic phenotype
6,C[C@@H]1C[C@H]2[C@@H]3C[C@H](F)C4=CC(=O)C=C[C@]4(C)[C@@]3(F)[C@@H](O)C[C@]2(C)[C@@]1(O)C(=O)COC(=O)C(C)(C)C [Flumethasone pivalate],anti-fibrotic phenotype
7,CCC(=O)O[C@]1(C(=O)SCF)[C@H](C)C[C@H]2[C@@H]3C[C@H](F)C4=CC(=O)C=C[C@]4(C)[C@@]3(F)[C@@H](O)C[C@@]21C [Fluticasone propionate],anti-fibrotic phenotype
8,CC[C@]12CCCN3CCc4c(n(c5ccccc45)C(=O)C1)[C@@H]32 [Eburnamonine (−)],anti-fibrotic phenotype
9,CCCOc1cc(N)ccc1C(=O)OCCN(CC)CC [Propoxycaine hydrochloride],anti-fibrotic phenotype
10,O=c1[nH]c2ccccc2n1CCCN1CCC(n2c(=O)[nH]c3cc(Cl)ccc32)CC1 [Domperidone],anti-fibrotic phenotype
11,C=C1/C(=C\C=C2/CCC[C@]3(C)[C@@H]([C@H](C)CCCC(C)C)CC[C@@H]23)C[C@@H](O)C[C@@H]1O [Alfacalcidol],anti-fibrotic phenotype
12,CC[C@H](C)C(=O)O[C@H]1CCC=C2C=C[C@H](C)[C@H](CC[C@@H]3C[C@@H](O)CC(=O)O3)[C@H]21 [Mevastatin],anti-fibrotic phenotype
13,Clc1cc(Cl)c(OCC#CI)cc1Cl [Haloprogin],anti-fibrotic phenotype
14,Nc1ccc(S(=O)(=O)Nc2ccnn2-c2ccccc2)cc1 [Sulfaphenazole],anti-fibrotic phenotype
15,CCN1CCN(C(=O)N[C@@H](C(=O)N[C@@H]2C(=O)N3[C@@H]2SC(C)(C)[C@@H]3C(=O)O)c2ccccc2)C(=O)C1=O [Piperacillin sodium salt],anti-fibrotic phenotype
16,"CC(=O)N(CC(O)CN(C(C)=O)c1c(I)c(C(=O)NCC(O)CO)c(I)c(C(=O)NCC(O)CO)c1I)c1c(I)c(C(=O)NCC(O)CO)c(I)c(C(=O)NCC(O)CO)c1I (centres unmarked) [Iodixanol, lodixanol]",anti-fibrotic phenotype
17,CC(=O)[C@H]1CC[C@H]2[C@@H]3C[C@H](C)C4=CC(=O)CC[C@]4(C)[C@H]3[C@@H](O)C[C@]12C [Medrysone],anti-fibrotic phenotype
18,CC1(C)O[C@@H]2C[C@H]3[C@@H]4C[C@H](F)C5=CC(=O)C=C[C@]5(C)[C@@]4(F)[C@@H](O)C[C@]3(C)[C@]2(C(=O)CO)O1 [Fluocinolone acetonide],anti-fibrotic phenotype
19,O=C(c1ccccc1)c1ccc2n1CCC2C(=O)O (centres unmarked) [Ketorolac tromethamine],anti-fibrotic phenotype

# System: liver
# Assay: ECM (matrix) movement into liver wounds after electroporation injury, NHS-FITC matrix labelling
# Type: in vivo, mouse
# Conditions: filter paper with 100 nM solution on liver surface for 5 minutes, absence of wounds
row,SMILES,recruitment / deposition of fluid matrix after local application
1,CCCCC/C=C\C[C@@H](O)/C=C/C=C/C=C\[C@@H](O)CCCC(=O)O [LTB4],forms new deposits of matrix
2,CCCCC[C@H](O)/C=C/C=C\C=C\C=C\[C@@H](O)[C@@H](O)CCCC(=O)O [Lipoxin A4],led to recruitment of fluid matrix

# Same assay, conditions: filter paper with 100 nM solution on liver surface for 5 minutes, absence of wounds; listed as Lipoxin
row,SMILES,recruitment / deposition of fluid matrix after local application
1,CCCCC[C@H](O)/C=C/C=C\C=C\C=C\[C@@H](O)[C@@H](O)CCCC(=O)O [Lipoxin A4],can be directed with local application

# Same assay, conditions: inhibitors 10 μM i.p. 2 hours before surgery, organs harvested after 24 h, FITC in wound lysates
row,SMILES,"ECM (matrix) movement, liver"
1,O=CN1CC/C(=C\c2ccc3c(c2)OCO3)C1=O [KNK437],decreased

# Same assay, conditions: mouse, in vivo, ip
row,SMILES,"ECM (matrix) movement, liver"
1,N#CCCN [BAPN],increased

# System: peritoneum
# Assay: ECM (matrix) movement into peritoneal wounds after laparotomy injury, NHS-FITC matrix labelling
# Type: in vivo, mouse
# Conditions: inhibitors 10 μM i.p. 2 hours before surgery, organs harvested after 24 h, FITC in wound lysates
row,SMILES,"ECM (matrix) movement, peritoneum"
1,O=CN1CC/C(=C\c2ccc3c(c2)OCO3)C1=O [KNK437],decreased
2,CC(C)C[C@H](NC(=O)[C@@H](O)[C@H](N)Cc1ccccc1)C(=O)O [BESTATIN],decreased
3,O=C1c2ccc([N+](=O)[O-])cc2N=C2N(c3ccccc3)CC[C@@]12O [(S)-nitro-Blebbistatin],decreased
4,N#CC(=C(O)c1ccc(Cl)cc1Cl)c1nc2cc(Cl)ccc2c(=O)[nH]1 [Ciliobrevin D],decreased

# Same assay, conditions: livers and peritoneas compared
row,SMILES,organ specificity of the effect on matrix currents
1,O=C1c2ccc([N+](=O)[O-])cc2N=C2N(c3ccccc3)CC[C@@]12O [(S)-nitro-Blebbistatin],effected matrix currents of only one organ
2,N#CC(=C(O)c1ccc(Cl)cc1Cl)c1nc2cc(Cl)ccc2c(=O)[nH]1 [Ciliobrevin D],effected matrix currents of only one organ

# Same assay, conditions: mouse, in vivo, ip
row,SMILES,"ECM (matrix) movement, peritoneum"
1,N#CCCN [BAPN],increased
